{
  "source": "patent US7910568B2",
  "about": "“Derivatives of 4- or 5-aminosalicylic acid” (Antibe Therapeutics Inc., priority 2005, dated 2011)",
  "key": {"TNBS-induced colitis": {"tested_on": "TNBS-induced colitis", "assay": "TNBS-induced colitis in mice, disease activity score", "assay_type": "in vivo", "procedure": "(§1) A standard experimental animal model of colitis induced by intracolonic administration of 2,4,6-trinitrobenzene sulfonic acid (TNBS) to mice is used in the following example. A detailed description of this model has been published (Santucci et al. (2003) Gastroenterology 124:1381-94) and is incorporated herein by reference. Briefly, 6-8 week old Balb/c mice were given TNBS intracolonically at a dose of 1.5 mg in 0.1 mL of 30% ethanol. The mice were randomized to the various treatment groups (n=6 per group). Beginning one hour later and continuing every 12 h for 5 days, the mice were treated orally with vehicle (1% carboxymethylcellulose (CMC)), 5-ASA (mesalamine) (25, 50 or 75 mg/kg) or with equimolar doses of 2-hydroxy-5-amino-benzoic acid 4-(thioxo-5H-[1,2]dithiol-3-yl)-phenyl ester hydrochloride (Compound XXXV) (130 mg/kg), or with […] (100 mg/kg), 50% (66 mg/kg) and 25% (33 mg/kg) of that dose. The mice were evaluated (blindly) on the final day of the study for the presence of diarrhea and fecal occult blood, and their body weights were measured. […] After sacrifice, a sample of the colon was excised for measurement of myeloperoxidase (MPO) activity, as a marker of granulocyte infiltration. All results were compared to those obtained with healthy mice as well."}, "[1]": {"tested_on": "myeloperoxidase (MPO) activity", "assay": "TNBS-induced colitis in mice, colonic myeloperoxidase (MPO) activity as marker of granulocyte infiltration", "assay_type": "in vivo", "procedure": "as §1"}, "[2]": {"tested_on": "TNF-α, IFN-γ, IL-1, IL-2, IL-12 p40, RANTES mRNA", "assay": "TNBS-induced colitis in mice, colonic mRNA of pro-inflammatory cytokines and chemokines by RT-PCR", "assay_type": "in vivo", "settings": "dose equimolar to 50 mg/kg mesalamine; normalized to GAPDH, ratio to healthy controls", "procedure": "(§2) The same model was used as described above. In this example, the effects of mesalamine (50 mg/kg) were compared to those of equimolar doses of Compound XXXV. In addition to measuring the severity of colitis by measuring disease activity score and MPO activity, tissues were processed for measurement of a number of genes for inflammatory cytokines and other mediators.\n(§3) In particular, mRNA expression in mice of tumour necrosis factor-alpha (TNF-α), interferon gamma (IFN-γ), colonic interleukin (IL)-1, IL-2, IL-10, IL-12 p40, RANTES, cyclooxygenase (COX)-1, COX-2, constitutive endothelial nitric oxide synthase (eNOS), and inducible NOS (iNOS) was measured as described in Wallace et al. (1999) Gastroenterology 117: 557-566, incorporated herein by reference.\n(§4) Briefly, reverse transcription-polymerase chain reaction (RT-PCR) was used to detect and quantify mRNA of the particular cytokine/chemokine/enzyme. Glyceraldehyde-3-phosphate dehydrogenase (GAPDH) was used as the “housekeeping gene” for mRNA expression (i.e., as an internal control). For each sample, the ratio of the amplification of the target gene to the amplification of GAPDH (expression of each is measured by performing densitometry on gels) was obtained. […]"}, "IL-10 mRNA": {"tested_on": "IL-10 mRNA", "assay": "TNBS-induced colitis in mice, colonic IL-10 mRNA by RT-PCR", "assay_type": "in vivo", "settings": "dose equimolar to 50 mg/kg mesalamine; normalized to GAPDH, ratio to healthy controls", "procedure": "as §2, §3, §4"}, "COX-2 mRNA": {"tested_on": "COX-2 mRNA", "assay": "TNBS-induced colitis in mice, colonic COX-2 mRNA by RT-PCR", "assay_type": "in vivo", "settings": "dose equimolar to 50 mg/kg mesalamine; FIG. 13", "procedure": "as §2, §3, §4"}, "eNOS mRNA": {"tested_on": "eNOS mRNA", "assay": "TNBS-induced colitis in mice, colonic eNOS mRNA by RT-PCR", "assay_type": "in vivo", "settings": "dose equimolar to 50 mg/kg mesalamine; FIG. 14", "procedure": "as §2, §3, §4"}, "iNOS mRNA": {"tested_on": "iNOS mRNA", "assay": "TNBS-induced colitis in mice, colonic iNOS mRNA by RT-PCR", "assay_type": "in vivo", "settings": "dose equimolar to 50 mg/kg mesalamine; FIG. 14", "procedure": "as §2, §3, §4"}, "[3]": {"assay": "Viability of HT-29 human colon cancer cells, MTT assay", "assay_type": "cell-based", "settings": "HT-29 colon cancer cells, 72 h exposure, HT-29, MTT, read-out: Cell viability rate as a percent of the vehicle (DMSO)-treated cells", "procedure": "HT-29 cells were grown in culture using standard methods. The cells were exposed to vehicle (DMSO), mesalamine or Compound XXXV. Concentrations ranging from 0.1 to 10 μM were tested, with each concentration tested in 6 wells. At the end of 72 h of exposure to the test drugs, cell viability was measured using the MTT [3-(4,5-dimethylthiaxol-2-yl)-2,5-diphenyltetrazolium bromide] assay (Carmichael et al. (1978) Cancer Res. 47, 936-942), incorporated herein by reference."}, "colonic smooth muscle": {"tested_on": "colonic smooth muscle", "assay": "Rat colorectal distension, intrarectal pressure / compliance of the colo-rectum", "assay_type": "in vivo", "settings": "100 mg/kg i.p.; FIG. 16(b)", "from_the_text": "In the testing day, rats were sedated with ether inhalation and a 2 cm long latex balloon was inserted intrarectally 2 cm from the anal verge and fixed at the base of the tail. The balloon was connected via a double-barreled cannula to a pressure transducer to continuously monitoring the rectal pressure by a computer (PowerLab PC, A.D. Instruments, Milford, Mass., USA) and to a syringe for inflation/deflation of the balloon. The rats were then housed in a small cage (20×8×8 cm) on an elevated Plexiglas™ platform and allowed to wake up and adapt for 1 hour. After recovery from sedation, animals underwent the CRD procedure and behavioral responses were tested. The night before the experiments, the balloons were inflated and left overnight so the latex stretched and the balloons became compliant. CRD of 20 seconds, performed every 5 minutes, was applied in increment of 0.4 ml starting from 0.4 ml up to 1.6 ml water. […] Behavioral responses during the first and the second set of CRD were assessed and compared. To determine the effect of mesalamine or Compound XXXV on colonic smooth muscle, the compliance of the colo-rectum during CRD was obtained from intracolo-rectal volume and pressure and expressed as mL/mmHg. […]"}, "[4]": {"assay": "H2S generation in buffer, liver homogenate and liver homogenate with PAG, sulfide sensitive electrode", "assay_type": "in vitro ADME, rat", "settings": "1 mM compound, FIG. 21"}},
  "data": [
    {"smiles": "Nc1ccc(O)c(C(=O)Oc2ccc(-c3cc(=S)ss3)cc2)c1", "note": "[Compound XXXV, 5-Amino-2-hydroxy-benzoic acid 4-(5-thioxo-5H-[1,2]dithiol-3-yl)-phenyl ester]", "values": [
      {"measurement": "Disease Activity Index", "setting": "TNBS-induced colitis; Compound XXXV 130 mg/kg vs mesalamine 50 mg/kg, ADT-OH 80 mg/kg and their mixture, FIG. 3", "result": "almost twice as effective as either mesalamine alone, ADT-OH alone or a mixture of mesalamine and ADT-OH"},
      {"measurement": "Every endpoint of FIGS. 7-14 (MPO activity, disease activity score, colonic mRNA expression)", "setting": "TNBS-induced colitis; dose equimolar to 50 mg/kg mesalamine", "result": "superior to mesalamine in every endpoint"},
      {"measurement": "Disease activity score", "setting": "TNBS-induced colitis; dose-ranging, oral every 12 h for 5 days, equimolar doses of 50 mg/kg and 75 mg/kg mesalamine, FIG. 1", "result": "superior to mesalamine in reducing the activity score"},
      {"measurement": "MPO activity (granulocyte infiltration)", "setting": "[1]; Compound XXXV 130 mg/kg, FIG. 4", "result": "significantly reduced inflammation"},
      {"measurement": "MPO activity", "setting": "[1]; dose-ranging, oral every 12 h for 5 days, highest doses tested, FIG. 2", "result": "significantly reduced (almost in half)"},
      {"measurement": "Expression of mRNA for pro-inflammatory cytokines and chemokines", "setting": "[2]", "result": "suppressed expression of mRNA for several pro-inflammatory cytokines and chemokines"},
      {"measurement": "Expression of IL-10 mRNA", "setting": "IL-10 mRNA", "result": "did not suppress expression of IL-10 mRNA"},
      {"measurement": "COX-2 mRNA expression", "setting": "COX-2 mRNA", "result": "suppressed"},
      {"measurement": "eNOS mRNA expression", "setting": "eNOS mRNA", "result": "suppressed"},
      {"measurement": "iNOS mRNA expression", "setting": "iNOS mRNA", "result": "suppressed"},
      {"measurement": "viability at 72 h, 0.1 µM", "setting": "[3]; 0.1 μM", "result": "88.4 ± 2.9", "unit": "%"},
      {"measurement": "viability at 72 h, 1 µM", "setting": "[3]; 1 μM", "result": "87.3 ± 2.3", "unit": "%"},
      {"measurement": "viability at 72 h, 10 µM", "setting": "[3]; 10 μM", "result": "79.6 ± 1.9", "unit": "%"},
      {"measurement": "Intrarectal pressure", "setting": "colonic smooth muscle", "result": "successfully reduced intrarectal pressure"},
      {"measurement": "Effect of PAG (DL-propargylglycine) on H2S generation in liver homogenate", "setting": "[4]; PAG 2 mM, inhibitor of cystathionine γ-lyase", "result": "lack of effect"},
      {"measurement": "H2S release in buffer", "setting": "[4]; potassium phosphate buffer pH 7.4, 37° C.", "result": "release H2S spontaneously (in buffer)"},
      {"measurement": "H2S release in liver homogenate compared with buffer", "setting": "[4]; rat liver homogenate 10% (wt/vol)", "result": "greater when in the presence of tissue"}
    ]}
  ]
}
